The source made the active and inactive calls. The rule behind the calls is not given here.
Columns and labels:
[1] = molecular target: T1, Tyrosine-protein phosphatase non-receptor type 7 (Homo sapiens) (UniProt P35236); experiment: Inhibition of HePTP (unknown origin) using DiFMUP as substrate at 100 uM incubated for 30 mins followed by substrate addition at pH 6.5 by standard phosphatase assay based fluorescence analysis
T1 sequence (whole entry): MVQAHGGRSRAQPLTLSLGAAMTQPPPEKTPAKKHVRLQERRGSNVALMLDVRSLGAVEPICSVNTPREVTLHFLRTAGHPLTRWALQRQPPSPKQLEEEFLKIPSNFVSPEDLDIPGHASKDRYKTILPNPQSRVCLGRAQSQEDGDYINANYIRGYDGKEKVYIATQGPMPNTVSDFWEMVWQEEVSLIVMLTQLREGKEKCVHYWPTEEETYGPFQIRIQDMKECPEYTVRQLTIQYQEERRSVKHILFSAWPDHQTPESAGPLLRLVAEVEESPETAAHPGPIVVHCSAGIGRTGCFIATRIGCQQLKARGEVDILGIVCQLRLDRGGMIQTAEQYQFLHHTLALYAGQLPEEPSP

[2] = molecular target: T2, Receptor-type tyrosine-protein phosphatase mu (Homo sapiens, UniProt P28827); experiment: Inhibition of PTPmu (unknown origin) using DiFMUP as substrate at 100 uM incubated for 30 mins followed by substrate addition at pH 6.5 by standard phosphatase assay based fluorescence analysis
[3] = molecular target: Receptor-type tyrosine-protein phosphatase F (Homo sapiens) (UniProt P10586); experiment: Inhibition of LAR (unknown origin) using DiFMUP as substrate at 100 uM incubated for 30 mins followed by substrate addition at pH 6.5 by standard phosphatase assay based fluorescence analysis
[4] = molecular target: T3, Tyrosine-protein phosphatase non-receptor type 2 (Homo sapiens) (UniProt P17706); experiment: Inhibition of TCPTP (unknown origin) using DiFMUP as substrate at 100 uM incubated for 30 mins followed by substrate addition at pH 6.5 by standard phosphatase assay based fluorescence analysis
T3 sequence (whole entry): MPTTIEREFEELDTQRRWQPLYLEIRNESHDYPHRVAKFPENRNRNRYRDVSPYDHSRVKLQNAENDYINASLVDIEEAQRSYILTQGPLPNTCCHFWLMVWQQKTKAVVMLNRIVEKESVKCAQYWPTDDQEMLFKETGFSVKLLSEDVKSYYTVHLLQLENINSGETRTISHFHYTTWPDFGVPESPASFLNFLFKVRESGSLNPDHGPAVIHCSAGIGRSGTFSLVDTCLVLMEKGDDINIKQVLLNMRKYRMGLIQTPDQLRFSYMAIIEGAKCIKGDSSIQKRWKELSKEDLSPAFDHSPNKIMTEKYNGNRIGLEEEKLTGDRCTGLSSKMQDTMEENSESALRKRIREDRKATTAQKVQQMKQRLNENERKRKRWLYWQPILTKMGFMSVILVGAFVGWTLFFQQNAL

[5] = molecular target: T4, Receptor-type tyrosine-protein phosphatase C (Homo sapiens) (UniProt P08575); experiment: Inhibition of CD45 (unknown origin) using DiFMUP as substrate at 100 uM incubated for 30 mins followed by substrate addition at pH 6.5 by standard phosphatase assay based fluorescence analysis
T4 sequence (whole entry): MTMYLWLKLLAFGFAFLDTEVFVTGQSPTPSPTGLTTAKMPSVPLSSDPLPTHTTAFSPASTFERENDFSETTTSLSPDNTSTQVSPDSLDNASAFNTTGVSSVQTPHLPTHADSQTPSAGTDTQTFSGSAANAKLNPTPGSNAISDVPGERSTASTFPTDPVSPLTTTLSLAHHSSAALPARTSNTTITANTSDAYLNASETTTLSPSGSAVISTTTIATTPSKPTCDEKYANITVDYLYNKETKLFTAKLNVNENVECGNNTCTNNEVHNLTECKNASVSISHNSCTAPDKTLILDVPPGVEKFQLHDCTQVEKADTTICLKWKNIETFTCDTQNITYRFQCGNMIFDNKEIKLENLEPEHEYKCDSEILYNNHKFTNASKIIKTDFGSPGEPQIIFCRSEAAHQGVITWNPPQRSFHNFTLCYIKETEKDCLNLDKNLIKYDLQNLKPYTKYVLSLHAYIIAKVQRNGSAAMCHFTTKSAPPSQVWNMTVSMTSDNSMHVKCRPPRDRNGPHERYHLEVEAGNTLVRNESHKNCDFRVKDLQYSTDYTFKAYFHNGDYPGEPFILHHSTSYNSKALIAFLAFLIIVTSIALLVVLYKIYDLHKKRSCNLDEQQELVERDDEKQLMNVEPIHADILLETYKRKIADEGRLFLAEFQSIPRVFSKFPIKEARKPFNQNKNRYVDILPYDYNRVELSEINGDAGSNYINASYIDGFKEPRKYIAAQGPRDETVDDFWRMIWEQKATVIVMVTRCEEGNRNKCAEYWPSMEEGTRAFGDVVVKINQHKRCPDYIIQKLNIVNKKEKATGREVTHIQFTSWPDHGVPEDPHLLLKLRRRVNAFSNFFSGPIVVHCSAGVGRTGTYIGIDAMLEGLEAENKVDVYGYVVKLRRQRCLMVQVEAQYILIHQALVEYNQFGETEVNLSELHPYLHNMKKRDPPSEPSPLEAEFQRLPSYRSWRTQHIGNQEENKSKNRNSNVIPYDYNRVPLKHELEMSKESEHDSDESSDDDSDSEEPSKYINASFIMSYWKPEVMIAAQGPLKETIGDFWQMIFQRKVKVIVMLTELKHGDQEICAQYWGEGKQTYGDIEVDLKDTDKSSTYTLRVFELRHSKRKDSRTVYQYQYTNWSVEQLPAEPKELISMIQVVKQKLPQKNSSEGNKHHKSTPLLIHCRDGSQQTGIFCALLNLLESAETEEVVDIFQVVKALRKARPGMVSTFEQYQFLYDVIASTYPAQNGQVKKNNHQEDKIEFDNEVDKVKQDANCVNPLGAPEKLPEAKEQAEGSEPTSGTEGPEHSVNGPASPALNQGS

[6] = molecular target: T5, Tyrosine-protein phosphatase non-receptor type 11 (Homo sapiens) (UniProt Q06124); experiment: Inhibition of SHP2 (unknown origin) using DiFMUP as substrate at 100 uM incubated for 30 mins followed by substrate addition at pH 6.5 by standard phosphatase assay based fluorescence analysis
T5 sequence (whole entry): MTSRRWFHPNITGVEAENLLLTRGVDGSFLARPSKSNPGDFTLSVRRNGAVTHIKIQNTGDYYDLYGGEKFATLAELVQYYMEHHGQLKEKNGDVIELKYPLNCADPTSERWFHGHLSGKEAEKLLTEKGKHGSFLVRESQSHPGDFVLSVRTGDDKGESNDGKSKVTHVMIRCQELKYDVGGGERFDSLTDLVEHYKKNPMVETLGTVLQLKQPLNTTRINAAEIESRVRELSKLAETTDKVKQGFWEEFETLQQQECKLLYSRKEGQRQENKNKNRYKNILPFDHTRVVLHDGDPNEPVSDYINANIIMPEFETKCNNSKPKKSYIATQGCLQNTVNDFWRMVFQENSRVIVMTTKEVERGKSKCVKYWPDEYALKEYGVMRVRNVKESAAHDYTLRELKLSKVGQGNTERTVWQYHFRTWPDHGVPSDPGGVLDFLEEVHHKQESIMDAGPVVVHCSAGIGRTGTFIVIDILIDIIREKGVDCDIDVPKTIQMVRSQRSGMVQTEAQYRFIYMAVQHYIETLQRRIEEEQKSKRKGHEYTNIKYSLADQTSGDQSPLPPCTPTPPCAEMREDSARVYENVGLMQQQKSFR

[7] = molecular target: Low molecular weight phosphotyrosine protein phosphatase (Homo sapiens) (UniProt P24666); experiment: Inhibition of LMWPTP (unknown origin) using DiFMUP as substrate at 100 uM incubated for 30 mins followed by substrate addition at pH 6.5 by standard phosphatase assay based fluorescence analysis
[8] = molecular target: T6, Receptor-type tyrosine-protein phosphatase epsilon (Homo sapiens, UniProt P23469); experiment: Inhibition of PTPep (unknown origin) using DiFMUP as substrate at 100 uM incubated for 30 mins followed by substrate addition at pH 6.5 by standard phosphatase assay based fluorescence analysis
[9] = molecular target: T7, Dual specificity protein phosphatase 3 (Homo sapiens, UniProt P51452); experiment: Inhibition of VHR (unknown origin) using DiFMUP as substrate at 100 uM incubated for 30 mins followed by substrate addition at pH 6.5 by standard phosphatase assay based fluorescence analysis
Target sequence in this assay (P51452 whole entry, looked up): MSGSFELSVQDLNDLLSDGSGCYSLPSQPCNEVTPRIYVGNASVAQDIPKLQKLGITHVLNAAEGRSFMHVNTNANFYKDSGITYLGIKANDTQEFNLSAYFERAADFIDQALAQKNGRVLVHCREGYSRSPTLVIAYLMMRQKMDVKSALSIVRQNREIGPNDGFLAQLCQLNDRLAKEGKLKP

[10] = molecular target: Receptor-type tyrosine-protein phosphatase F (Homo sapiens) (UniProt P10586); experiment: Inhibition of LAR (unknown origin) assessed as time required for half of the protein to be covalently modified using DiFMUP as substrate incubated for 15 to 120 mins followed by substrate addition at pH 6.5 by standard phosphatase assay based fluorescence analysis
[11] = molecular target: T2, Receptor-type tyrosine-protein phosphatase mu; experiment: Time-dependent inhibition of PTPmu (unknown origin) using DiFMUP as substrate at 10 uM incubated for 5 to 120 mins followed by substrate addition at pH 6.5 by standard phosphatase assay based fluorescence analysis; conditions: TDE = time-dependent effect
[12] = molecular target: T7, Dual specificity protein phosphatase 3; experiment: Inhibition of VHR (unknown origin) using DiFMUP as substrate incubated for 30 mins followed by substrate addition at pH 6.5 by standard phosphatase assay based fluorescence analysis
Target sequence in this assay (P51452 whole entry): as the sequence (P51452 whole entry, looked up) above

[13] = molecular target: T8, Tyrosine-protein phosphatase non-receptor type 11 (Homo sapiens, UniProt Q06124); experiment: Inhibition of SHP2 (unknown origin) using DiFMUP as substrate incubated for 30 mins followed by substrate addition at pH 6.5 by standard phosphatase assay based fluorescence analysis
T8 sequence (Q06124 whole entry): T5 sequence (whole entry)

[14] = molecular target: T9, Tyrosine-protein phosphatase non-receptor type 2 (Homo sapiens, UniProt P17706); experiment: Inhibition of TCPTP (unknown origin) using DiFMUP as substrate incubated for 30 mins followed by substrate addition at pH 6.5 by standard phosphatase assay based fluorescence analysis
T9 sequence (P17706 whole entry): T3 sequence (whole entry)

[15] = molecular target: T4, Receptor-type tyrosine-protein phosphatase C (Homo sapiens); experiment: Time dependent inhibition of CD45 (unknown origin) using DiFMUP as substrate at 10 uM incubated for 5 to 120 mins followed by substrate addition at pH 6.5 by standard phosphatase assay based fluorescence analysis; conditions: TDE = time-dependent effect
[16] = molecular target: T6, Receptor-type tyrosine-protein phosphatase epsilon; experiment: Inhibition of PTPep (unknown origin) using DiFMUP as substrate incubated for 30 mins followed by substrate addition at pH 6.5 by standard phosphatase assay based fluorescence analysis
[17] = molecular target: T10, Tyrosine-protein phosphatase non-receptor type 7 (Homo sapiens, UniProt P35236); experiment: Inhibition of HePTP (unknown origin) using DiFMUP as substrate incubated for 30 mins followed by substrate addition at pH 6.5 by standard phosphatase assay based fluorescence analysis
T10 sequence (P35236 whole entry): T1 sequence (whole entry)

[18] = molecular target: T2, Receptor-type tyrosine-protein phosphatase mu; experiment: Inhibition of PTPmu (unknown origin) using DiFMUP as substrate incubated for 30 mins followed by substrate addition at pH 6.5 by standard phosphatase assay based fluorescence analysis
[19] = molecular target: Receptor-type tyrosine-protein phosphatase F (Homo sapiens) (UniProt P10586); experiment: Time-dependent inhibition of LAR (unknown origin) using DiFMUP as substrate at 1 uM incubated for 15 to 120 mins followed by substrate addition at pH 6.5 by standard phosphatase assay based fluorescence analysis; conditions: TDE = time-dependent effect
[20] = molecular target: Receptor-type tyrosine-protein phosphatase F (Homo sapiens) (UniProt P10586); experiment: Inhibition of LAR (unknown origin) using DiFMUP as substrate incubated for 30 mins followed by substrate addition at pH 6.5 by standard phosphatase assay based fluorescence analysis
[21] = molecular target: T11, Receptor-type tyrosine-protein phosphatase C (Homo sapiens, UniProt P08575); experiment: Inhibition of CD45 (unknown origin) using DiFMUP as substrate incubated for 30 mins followed by substrate addition at pH 6.5 by standard phosphatase assay based fluorescence analysis
T11 sequence (P08575 whole entry): T4 sequence (whole entry)

[22] = molecular target: Receptor-type tyrosine-protein phosphatase F (Homo sapiens) (UniProt P10586); experiment: Time-dependent inhibition of LAR (unknown origin) using DiFMUP as substrate at 50 uM incubated for 15 to 120 mins followed by substrate addition at pH 6.5 by standard phosphatase assay based fluorescence analysis; conditions: TDE = time-dependent effect

T2 sequence (P28827 whole entry): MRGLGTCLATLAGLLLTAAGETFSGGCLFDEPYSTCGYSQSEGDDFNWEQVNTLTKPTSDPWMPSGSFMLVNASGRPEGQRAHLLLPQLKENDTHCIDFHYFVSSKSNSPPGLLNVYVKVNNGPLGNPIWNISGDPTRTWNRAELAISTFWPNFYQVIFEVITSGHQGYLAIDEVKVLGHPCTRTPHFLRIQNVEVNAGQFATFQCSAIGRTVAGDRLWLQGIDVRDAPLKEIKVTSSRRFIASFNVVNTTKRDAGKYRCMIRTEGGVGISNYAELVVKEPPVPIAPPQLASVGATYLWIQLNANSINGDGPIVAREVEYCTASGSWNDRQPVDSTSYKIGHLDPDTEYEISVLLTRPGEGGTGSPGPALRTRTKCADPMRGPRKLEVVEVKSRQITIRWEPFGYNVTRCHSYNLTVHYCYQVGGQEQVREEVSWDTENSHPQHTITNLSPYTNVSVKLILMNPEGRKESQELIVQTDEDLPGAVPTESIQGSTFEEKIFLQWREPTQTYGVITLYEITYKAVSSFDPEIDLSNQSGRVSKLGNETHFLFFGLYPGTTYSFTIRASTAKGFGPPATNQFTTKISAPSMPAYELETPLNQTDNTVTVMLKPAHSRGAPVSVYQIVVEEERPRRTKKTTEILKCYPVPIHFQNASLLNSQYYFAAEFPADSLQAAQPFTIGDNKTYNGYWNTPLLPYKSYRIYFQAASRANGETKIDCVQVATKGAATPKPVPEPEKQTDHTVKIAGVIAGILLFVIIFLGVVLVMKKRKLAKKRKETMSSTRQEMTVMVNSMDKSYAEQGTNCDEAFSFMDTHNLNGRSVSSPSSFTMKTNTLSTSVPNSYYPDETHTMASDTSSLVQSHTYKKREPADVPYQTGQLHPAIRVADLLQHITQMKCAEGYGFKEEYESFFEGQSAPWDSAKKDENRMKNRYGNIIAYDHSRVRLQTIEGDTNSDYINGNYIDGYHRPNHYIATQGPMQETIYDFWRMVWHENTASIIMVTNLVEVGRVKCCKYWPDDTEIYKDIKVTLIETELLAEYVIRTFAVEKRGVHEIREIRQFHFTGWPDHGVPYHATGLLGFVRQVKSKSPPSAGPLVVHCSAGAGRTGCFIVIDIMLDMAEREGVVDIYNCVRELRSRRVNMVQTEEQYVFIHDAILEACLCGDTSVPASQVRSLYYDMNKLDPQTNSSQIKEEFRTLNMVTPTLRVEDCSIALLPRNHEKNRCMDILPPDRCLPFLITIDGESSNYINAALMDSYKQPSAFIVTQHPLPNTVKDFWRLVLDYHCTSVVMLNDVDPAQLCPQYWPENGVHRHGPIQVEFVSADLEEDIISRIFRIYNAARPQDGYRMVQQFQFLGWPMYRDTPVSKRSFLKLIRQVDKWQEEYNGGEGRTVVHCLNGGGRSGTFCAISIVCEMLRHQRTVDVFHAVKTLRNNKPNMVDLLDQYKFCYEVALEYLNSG
T6 sequence (P23469 whole entry): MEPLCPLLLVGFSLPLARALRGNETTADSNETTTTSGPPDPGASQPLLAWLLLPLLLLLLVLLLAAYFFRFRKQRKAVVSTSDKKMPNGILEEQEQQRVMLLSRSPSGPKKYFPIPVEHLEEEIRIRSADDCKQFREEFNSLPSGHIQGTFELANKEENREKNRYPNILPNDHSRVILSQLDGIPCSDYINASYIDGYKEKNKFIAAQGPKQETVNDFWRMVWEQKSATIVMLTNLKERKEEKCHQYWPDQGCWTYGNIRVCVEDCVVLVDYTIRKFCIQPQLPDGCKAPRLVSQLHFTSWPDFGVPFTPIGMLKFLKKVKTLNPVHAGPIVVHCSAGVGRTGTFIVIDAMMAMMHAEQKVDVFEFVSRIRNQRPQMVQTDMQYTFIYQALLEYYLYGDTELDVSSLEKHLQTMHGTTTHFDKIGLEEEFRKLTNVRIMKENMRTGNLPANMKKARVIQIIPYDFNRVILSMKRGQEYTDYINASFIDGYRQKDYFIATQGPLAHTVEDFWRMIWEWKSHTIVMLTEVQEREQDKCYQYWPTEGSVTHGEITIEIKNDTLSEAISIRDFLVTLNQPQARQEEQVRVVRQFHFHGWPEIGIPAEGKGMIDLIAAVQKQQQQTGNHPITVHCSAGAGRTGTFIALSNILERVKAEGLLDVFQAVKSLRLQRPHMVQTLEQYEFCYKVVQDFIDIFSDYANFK
Sequence of Low molecular weight phosphotyrosine protein phosphatase (Homo sapiens) (P24666 whole entry, looked up): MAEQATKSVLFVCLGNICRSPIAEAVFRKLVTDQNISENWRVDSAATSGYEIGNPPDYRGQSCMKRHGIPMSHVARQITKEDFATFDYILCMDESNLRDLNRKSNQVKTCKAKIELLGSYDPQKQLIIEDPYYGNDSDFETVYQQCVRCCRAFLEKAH
Sequence of Receptor-type tyrosine-protein phosphatase F (Homo sapiens) (P10586 whole entry): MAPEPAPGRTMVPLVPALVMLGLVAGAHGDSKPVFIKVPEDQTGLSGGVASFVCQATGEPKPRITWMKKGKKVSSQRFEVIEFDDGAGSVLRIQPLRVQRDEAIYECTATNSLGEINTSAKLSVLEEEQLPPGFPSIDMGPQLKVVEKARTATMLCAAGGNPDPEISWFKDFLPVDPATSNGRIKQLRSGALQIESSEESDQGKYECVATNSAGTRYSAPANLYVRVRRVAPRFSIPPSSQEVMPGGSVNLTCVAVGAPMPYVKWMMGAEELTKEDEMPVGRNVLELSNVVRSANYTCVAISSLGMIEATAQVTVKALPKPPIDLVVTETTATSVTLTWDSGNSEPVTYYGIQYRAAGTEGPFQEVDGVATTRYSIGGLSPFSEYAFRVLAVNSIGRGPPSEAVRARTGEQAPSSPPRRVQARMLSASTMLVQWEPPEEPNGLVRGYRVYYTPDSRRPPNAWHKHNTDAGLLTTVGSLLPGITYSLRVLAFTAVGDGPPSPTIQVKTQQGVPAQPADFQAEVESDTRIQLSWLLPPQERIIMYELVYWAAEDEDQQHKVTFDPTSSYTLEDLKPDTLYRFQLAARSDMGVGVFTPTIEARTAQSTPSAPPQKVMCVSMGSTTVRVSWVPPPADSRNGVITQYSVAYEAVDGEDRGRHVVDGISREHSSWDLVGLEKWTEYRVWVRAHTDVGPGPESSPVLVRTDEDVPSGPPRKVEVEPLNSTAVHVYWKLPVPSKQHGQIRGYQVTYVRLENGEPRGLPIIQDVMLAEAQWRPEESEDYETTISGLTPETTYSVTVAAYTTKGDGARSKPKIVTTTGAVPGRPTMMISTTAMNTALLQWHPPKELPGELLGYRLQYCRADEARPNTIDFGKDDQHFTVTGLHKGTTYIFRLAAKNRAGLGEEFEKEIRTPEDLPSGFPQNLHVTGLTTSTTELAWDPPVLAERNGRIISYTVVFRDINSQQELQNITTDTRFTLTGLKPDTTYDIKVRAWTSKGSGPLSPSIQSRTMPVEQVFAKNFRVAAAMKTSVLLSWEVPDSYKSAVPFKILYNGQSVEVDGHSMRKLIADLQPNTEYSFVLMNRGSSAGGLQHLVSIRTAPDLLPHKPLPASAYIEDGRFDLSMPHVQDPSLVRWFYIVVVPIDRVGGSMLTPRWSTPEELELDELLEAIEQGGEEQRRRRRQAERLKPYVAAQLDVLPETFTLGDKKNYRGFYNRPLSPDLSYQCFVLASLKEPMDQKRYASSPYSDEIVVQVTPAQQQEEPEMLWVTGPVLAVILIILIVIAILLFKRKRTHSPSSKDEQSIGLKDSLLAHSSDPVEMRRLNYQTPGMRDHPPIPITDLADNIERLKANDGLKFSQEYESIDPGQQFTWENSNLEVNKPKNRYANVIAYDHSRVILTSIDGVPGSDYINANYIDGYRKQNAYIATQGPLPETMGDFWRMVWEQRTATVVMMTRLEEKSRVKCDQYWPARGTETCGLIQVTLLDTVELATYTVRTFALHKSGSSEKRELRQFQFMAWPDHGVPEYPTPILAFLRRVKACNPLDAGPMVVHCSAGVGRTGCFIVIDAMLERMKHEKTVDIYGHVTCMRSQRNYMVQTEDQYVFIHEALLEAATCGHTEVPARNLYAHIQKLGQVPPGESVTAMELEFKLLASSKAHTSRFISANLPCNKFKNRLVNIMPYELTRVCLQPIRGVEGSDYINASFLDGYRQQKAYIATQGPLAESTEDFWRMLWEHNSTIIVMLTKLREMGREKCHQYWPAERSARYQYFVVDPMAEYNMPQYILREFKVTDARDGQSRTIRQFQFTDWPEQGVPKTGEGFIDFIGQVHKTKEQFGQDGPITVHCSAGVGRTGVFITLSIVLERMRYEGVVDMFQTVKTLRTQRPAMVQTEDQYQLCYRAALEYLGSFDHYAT

Structure (SMILES)	inhibition [1]	inhibition [2]	inhibition [3]	inhibition [4]	inhibition [5]	inhibition [6]	inhibition [7]	inhibition [8]	inhibition [9]	IC50 [12] [µM]	IC50 [13] [µM]	IC50 [14] [µM]	IC50 [16] [µM]	IC50 [17] [µM]	IC50 [18] [µM]	IC50 [21] [µM]	also measured
COc1ccc2c(c1C=O)CC(O)OC2=O (configuration not stated)	inactive	inactive	inactive	inactive	inactive	inactive	inactive	inactive	inactive	–	–	–	–	–	–	–	–
CC1(C)Cc2c(O)c(C=O)c3c(c2C1)C(=O)OC(O)C3 (configuration not stated) [ILLUDALIC ACID]	inactive	Active	Active	inactive	Active	Active	inactive	inactive	inactive	> 100	29	> 100	> 100	> 100	16	10	T1/2 [10]: 30 s; inhibition [11]: Tde; inhibition [15]: Tde; inhibition [19]: Tde; inhibition [20]: Dose-dependent effect
COc1c(C=O)c2c(c3c1CC(C)(C)C3)C(=O)OC(O)C2 (configuration not stated)	inactive	inactive	Active	inactive	inactive	inactive	inactive	inactive	inactive	> 100	> 100	> 100	> 100	> 100	> 100	> 100	inhibition [22]: Tde

Source: ChEMBL document CHEMBL4414670 (J Nat Prod, 2019)
